Measured values from US20250002450A1, “CATIONIC STEROID COMPOUNDS, METHOD OF OBTAINING THEREOF, FORMULATIONS COMPRISING THEREOF AND THEIR USES” (UNIVERSIDADE DO PORTO, priority 2021, published 2025).
Values after ≈ are worked out from the molar mass of the structure shown. Read-outs that look alike come from different tables or passages of the source.

Columns and labels:
Trichophyton rubrum FF5 = assay: Antifungal MIC/MLC (broth microdilution); format: cell-based
Excerpt: (§1) Twenty-three fungal strains were used in this study, including reference strains and clinical isolates of yeasts and filamentous fungi. Yeast strains included reference strains (ATCC—American Type Culture Collection and CECT—Colección Española de Cultivos Tipo) and clinical isolates: C. albicans ATCC 10231, Candida krusei ATCC 6258, C. albicans H37, C. albicans FF172, C. albicans FF176, C. albicans DSY294, C. albicans DSY296, C. glabrata DSY562, C. glabrata DSY565 and Cryptococcus neoformans CECT 1078. Filamentous fungi included Aspergillus fumigatus ATCC 240305, A. fumigatus C111, A. niger ATCC 16404, A. flavus F44, Fusarium solani FF125, F. oxysporum FF115, and dermatophytes Trichophyton rubrum FF5, T. mentagrophytes FF7, Microscoporum canis FF1 and Nannizzia gypsea FF3 (formerly Microsporum gypseum) and a species of genera Mucor, Lichetheimia and Scedosporium. Saprolegnia parasitica CBS 223.65, a reference strain of an oomycete fish pathogen, was also included. All microorganisms were kept in Sabouraud Dextrose Broth (SDB: BioMérieux, Marcy L'Etoile, France) plus glycerol (20%) at −80° C. The strains were kept in Sabouraud Dextrose Agar (SDA: BioMérieux, Marcy L'Etoile, France) slants and were sub-cultured in SDA before each test. S. parasitica was kept in Corn Meal Agar plates (CMA: BBL™ Corn Meal Agar, BD, Le Pont-de-Claix, France) and was sub-cultured in CMA before each experiment. C. albicans H37, was kindly provided by Cidilia Pina Vaz (CHSJ, Porto, Portugal) and C. albicans DSY294, C. albicans DSY296, C. glabrata DSY562, C. glabrata DSY565 were kindly provided by D. Sanglard (University of Lausanne, Switzerland). A stock solution of compound 1 (10 mg/mL), was prepared in dimethyl sulfoxide (DMSO 99%: Alfa Aesar, Kandel, Germany), kept at −20 degrees C., and freshly diluted in the appropriate culture media before each assay. In all experiments, in-test concentrations of DMSO were kept below 2%.
(§2) Antifungal activity was evaluated by determining the MIC of compound 1 by the broth microdilution method, according to CLSI guidelines (reference documents M27-A3 for yeasts and M38-A2 for filamentous fungi). Briefly, cell or spore suspensions were prepared in RPMI-1640 broth medium (Biochrom, Berlin, Germany) buffered with 3-(N-morpholino)propane sulfonic acid (MOPS) (Sigma-Aldrich, St. Louis, MO, USA) (henceforth referred to as RPMI) from fresh cultures of the different strains of fungi. For yeasts, the inoculum was adjusted to 0.5-2.5×10^3 CFU/mL. For filamentous fungi, the inoculum was adjusted to 1-3×10^3 CFU/mL for dermatophytes, and 0.4-5×10^4 CFU/mL for all other strains. […] Sterility and growth controls were included in each assay. The 96-well flat-bottomed untreated polystyrene microtiter plates which were incubated for 48 h at 35° C., with the exception of Lichetheimia spp. which was incubated at 25° C. for 48 h, and the dermatophyte strains, which incubated for 5-7 days at 25° C. […] The minimal lethal concentration (MLC) was determined by spreading 20 μL of culture collected from wells showing no visible growth on SDA plates. The MLC was determined as the lowest concentration showing complete growth inhibition after 48 h at 35 degrees C., 48 h at 25 degrees C.

Microsporum canis FF1 = assay: Antifungal MIC/MLC (broth microdilution); format: cell-based
Excerpt: as §1, §2

Nannizzia gypsea FF3 = assay: Antifungal MIC/MLC (broth microdilution); format: cell-based
Excerpt: as §1, §2

[1] = system: Candida albicans ATCC 10231; assay: Antifungal MIC/MLC (broth microdilution); format: cell-based
Excerpt: as §1, §2

C. albicans ATCC 10231 = assay: Potassium ion efflux analysis; format: cell-based, Candida albicans; details: 5 min
Procedure: In an embodiment, the potassium ion (K^+) efflux analysis was performed as follows ([FIG. 9]). Leakage of potassium ions is a common response to membrane-disrupting agents; therefore, extracellular K^+ was quantified by flame atomic absorption spectrometry, after 5 min of exposure to compound 1 ([FIG. 10]). […] Efflux of potassium was determined by quantification of extracellular K^+ by flame atomic absorption spectrometry. Cell suspensions of C. albicans ATCC 10231 were prepared in the same manner as described for PI influx assay, and test conditions were also the same. After 5 min of exposure, cells were centrifuged for 10 min at 3500 rpm and the supernatants were filtrated using a cellulose acetate syringe filter with a 0.22 µm pore size. Samples were analyzed with a AAnalyst 200 Atomic Absorption Spectrometer (Perkin Elmer). Four independent assays were performed and the data are presented as percentage of control (untreated cells as […] of K^+).

E. coli ATCC 25922 = assay: Bacterial biofilm formation inhibition (crystal violet); format: cell-based, Escherichia coli
Procedure: In an embodiment, the antibiofilm activity of compound 1 was performed as follows. Given its bactericidal effect, the impact of compound 1 on the biofilm formation of reference strains was studied.
The effect of compound 1 on bacterial biofilm formation was evaluated through quantification of total biomass, using the crystal violet method, as previously described ([FIG. 6]). […] A control with an appropriate concentration of DMSO, as well as a negative control (TSB alone) was included. Sterile 96-well flat-bottomed untreated polystyrene microtiter plates were used. After a 24 h incubation at 37 degrees C., the biofilms were heat-fixed for 1 h at 60 degrees C. and stained with 0.5% (v/v) crystal violet (Quimica Clinica Aplicada, Amposta, Spain) for 5 min. The stain was resolubilized with 33% (v/v) acetic acid (Acetic acid 100%, AppliChem, Darmstadt, Germany) and the biofilm biomass was quantified by measuring the absorbance of each sample at 570 nm in a microplate reader (Thermo Scientific Multiskan® EX, Thermo Fisher Scientific, Waltham, MA, USA). The background absorbance (TSB or TSB+1% glucose without inoculum) was subtracted from the absorbance of each sample and the data are presented as a percentage of control. Three independent assays were performed for reference strains, with triplicates for each experimental condition.

E. coli SA/2 = assay: Checkerboard synergy with CTX; format: cell-based
Procedure: The combined effect of compound 1 and CTX for E. coli SA/2, VAN for E. faecalis B3/101, COL for E. coli 2252, erythromycin for E. coli ATCC 25922, and OXA for S. aureus 66/1 was evaluated by the checkerboard method. […] The interaction between compound 1 and erythromycin was assessed for E. coli ATCC 25922. Gram-negative bacteria are intrinsically resistant to erythromycin, a macrolide that inhibits protein synthesis, and cannot penetrate the outer membrane of Gram-negative bacteria, which is impermeable to hydrophobic antibiotics. Ascertain ceragenins have been previously described to be able to enhance the efficacy of such antibiotics, this possibility was investigated for compound 1 and a FICI of 0.6 was obtained.

Structure (SMILES) | MIC (Trichophyton rubrum FF5; read-out: MIC) | MIC (Microsporum canis FF1; read-out: MIC) | MIC (Nannizzia gypsea FF3; read-out: MIC) | MIC ([1]; ATCC10231, read-out: MIC) | levels of extracellular K+ vs untreated control (C. albicans ATCC 10231; 8 μg/mL) | MIC (Trichophyton rubrum FF5) | MLC (Trichophyton rubrum FF5) | MIC (Microsporum canis FF1) | MLC (Microsporum canis FF1) | MIC (Nannizzia gypsea FF3) | MLC (Nannizzia gypsea FF3) | MIC [1] | MLC [1] | biofilm formation (in words) (E. coli ATCC 25922; 2×MIC and MIC, 24 h) | minimal biofilm inhibitory concentration (MBIC) (E. coli ATCC 25922; 80% reduction of biofilm formation, E. coli ATCC 25922) | combined effect with CTX (in words) (E. coli SA/2) | levels of extracellular K+ vs untreated control (C. albicans ATCC 10231; 128, 64, and 32 μg/mL (2×MIC, MIC, ½×MIC))
OC(Cn1cncn1)(Cn1cncn1)c1ccc(F)cc1F [Fluconazole, reference compound] | 16 µg/mL (≈ 52.2 µM) | 32 µg/mL (≈ 104 µM) | 32 µg/mL (≈ 104 µM) | 2 µg/mL (≈ 6.53 µM) | not |  |  |  |  |  |  |  |  |  |  |  | 
C[C@H](CCC(=O)NCCN)[C@H]1CC[C@H]2[C@@H]3CC[C@@H]4C[C@H](O)CC[C@]4(C)[C@H]3C[C@H](O)[C@]12C [Compound 1, (R)—N-(2-aminoethyl)-4-((3R,5R,8R,9S,10S,12S,13R,14S,17R)-3,12-dihydroxy-10,13-dimethylhexadecahydro-1H-cyclopenta[a]phenanthren-17-yl) pentanamida] |  |  |  |  |  | 32 µg/mL (≈ 73.6 µM) | 64 µg/mL (≈ 147 µM) | 64 µg/mL (≈ 147 µM) | 128 µg/mL (≈ 294 µM) | 32 µg/mL (≈ 73.6 µM) | 32 µg/mL (≈ 73.6 µM) | 64 µg/mL (≈ 147 µM) | 64 µg/mL (≈ 147 µM) | significantly inhibited | < 8 µg/mL | No synergistic interactions | significant levels of extracellular K
